According to PMC7826463, “Pamiparib dose escalation in Chinese patients with non‐mucinous high‐grade ovarian cancer or advanced triple‐negative breast cancer” (Cancer Medicine, 2020):
Several values for one entry are separate records, joined by “and”; a condition that tells them apart may be missing. Equal entries are not always repeated. Entries after “also recorded” stand apart in the source; their conditions may differ. Where two headings read alike, the source gives them in different places.

Assay: Plasma pharmacokinetics of pamiparib, single dose and steady state, non-compartmental
Assay type: in vivo, human
Settings: for CL/F / Cmax / AUC(0-t) / AUC(0-inf): geometric mean (geometric CV%); for Cmax / AUC(0-t) / half-life / Tmax / AUC(0-inf): human, plasma; for half-life: geometric mean (range)
Method: Secondary objectives were assessment of PK parameters and antitumor activity. Blood samples for the PK analysis were collected at Cycle 1 on Days 1, 2, and 3. Pharmacokinetic sampling was performed at Cycle 1 on Day 1 (predose and at 0.5, 1, 2, 4, 6, 9, and 12 hours postdose), Day 2, Day 3, and Day 10 (predose and at 0.5, 1, 2, 4, 6, 9, and 12 hours postdose); then at Cycles 2 and 3 on Day 1 (predose and at 2 hours postdose). […] Tumor assessments were performed by the investigators at screening, every 6 weeks after the first dose of pamiparib in the 1st year, and every 12 weeks thereafter until progression, per RECIST v1.1. Patients completed the study at the time of their safety follow‐up visit; therefore, radiological assessment of disease progression was not performed after the safety follow‐up visit. Approximately 14 to 18 evaluable patients were expected to enroll in the phase 1 part of the study. The safety population included all patients who received ≥1 dose of pamiparib. The PK population included all patients for whom valid pamiparib PK parameters could be estimated. Antitumor activity per RECIST v1.1 was assessed in all evaluable patients. […] The population evaluable for CA‐125 response included patients in the safety population with baseline CA‐125 ≥2 x upper limit of normal. Descriptive statistics were used to summarize all study data. Continuous variables included the number of non‐missing observations, mean, standard deviation, median, minimum, and maximum. Categorical variables were summarized by their frequency and percentage. Progression‐free survival was estimated using the Kaplan–Meier method and the corresponding 95% confidence interval (CI) was constructed using Greenwood's formula. Standard PK parameters (i.e., area under the plasma concentration‐time curve [AUC] from time of drug administration; maximum plasma concentration [Cmax]; time to Cmax; elimination half‐life [t1/2]; apparent clearance; and apparent volume of distribution during terminal phase) were estimated and derived using standard non‐compartmental methods.

Compound: C[C@]12CCCN1CC1=NNC(=O)c3cc(F)cc4[nH]c2c1c34 [pamiparib, Pamiparib]
- Accumulation ratio, AUC0-12 (20 mg BID, n 4): 2.05
- Accumulation ratio, Cmax (20 mg BID, n 4): 1.78
- Accumulation ratio, AUC0-12 (40 mg BID, n 4): 3.95
- Accumulation ratio, Cmax (40 mg BID, n 4): 3.19
- Accumulation ratio, AUC0-12 (60 mg BID, n 5): 3.4 and 3.36
- Accumulation ratio, Cmax (60 mg BID, n 5): 2.6 and 2.62
- CL/F (Single dose, 20 mg BID cohort, N 4): 1.95 (44) L/hr
- CL/F (Single dose, 40 mg BID cohort, N 4): 2.07 (61) L/hr
- CL/F (Single dose, 60 mg BID cohort, N 7): 2.19 (79) L/hr
- Dose proportionality of plasma exposure (AUC and Cmax) (between 20 mg and 60 mg BID, after a single dose): increased near proportionally; also recorded: near dose‐proportional
- Cmax (oral, 20 mg, Single dose, 20 mg BID cohort, N 4, plasma): 718 ng/mL
- AUC(0-t) (oral, 20 mg, Single dose, 20 mg BID cohort, N 4, read-out: AUC0-9): 4130 ng·h/mL
- AUC(0-t) (oral, 20 mg, Single dose, 20 mg BID cohort, N 4, read-out: AUC0-12): 5030 ng·h/mL
- half-life (oral, 20 mg, Single dose, 20 mg BID cohort, N 4): 12.1 h
- Tmax (oral, 20 mg, Single dose, 20 mg BID cohort, N 4, median (range), read-out: Tmax): 1.01 h
- Cmax (oral, 20 mg, Steady state (Cycle 1 Day 10), 20 mg BID, N 4): 1280 ng/mL
- AUC(0-t) (oral, 20 mg, Steady state (Cycle 1 Day 10), 20 mg BID, N 4, read-out: AUC0-9): 8360 ng·h/mL
- AUC(0-t) (oral, 20 mg, Steady state (Cycle 1 Day 10), 20 mg BID, N 4, read-out: AUC0-12): 10300 ng·h/mL
- Tmax (oral, 20 mg, Steady state (Cycle 1 Day 10), 20 mg BID, N 4, median (range), read-out: Tmax): 1.04 h
- Cmax (oral, 40 mg, Single dose, 40 mg BID cohort, N 4, plasma): 1630 ng/mL
- AUC(0-t) (oral, 40 mg, Single dose, 40 mg BID cohort, N 4, read-out: AUC0-9): 8560 ng·h/mL
- AUC(0-t) (oral, 40 mg, Single dose, 40 mg BID cohort, N 4, read-out: AUC0-12): 10400 ng·h/mL
- half-life (oral, 40 mg, Single dose, 40 mg BID cohort, N 4): 11.8 h
- Tmax (oral, 40 mg, Single dose, 40 mg BID cohort, N 4, median (range), read-out: Tmax): 0.98 h
- Cmax (oral, 40 mg, Steady state (Cycle 1 Day 10), 40 mg BID, N 4): 5210 ng/mL
- AUC(0-t) (oral, 40 mg, Steady state (Cycle 1 Day 10), 40 mg BID, N 4, read-out: AUC0-9): 32500 ng·h/mL
- AUC(0-t) (oral, 40 mg, Steady state (Cycle 1 Day 10), 40 mg BID, N 4, read-out: AUC0-12): 40900 ng·h/mL
- Tmax (oral, 40 mg, Steady state (Cycle 1 Day 10), 40 mg BID, N 4, median (range), read-out: Tmax): 1.1 h
- Cmax (oral, 60 mg, Single dose, 60 mg BID cohort, N 7, plasma): 2300 ng/mL
- AUC(0-t) (oral, 60 mg, Single dose, 60 mg BID cohort, N 7, read-out: AUC0-9): 11900 ng·h/mL
- AUC(0-t) (oral, 60 mg, Single dose, 60 mg BID cohort, N 7, read-out: AUC0-12): 14800 ng·h/mL
- half-life (oral, 60 mg, Single dose, 60 mg BID cohort, N 7): ~14 h
- Tmax (oral, 60 mg, Single dose, 60 mg BID cohort, N 7, median (range), read-out: Tmax): 1.13 h
- Cmax (oral, 60 mg, Steady state (Cycle 1 Day 10), 60 mg BID, N 5): 5860 ng/mL
- AUC(0-t) (oral, 60 mg, Steady state (Cycle 1 Day 10), 60 mg BID, N 5, read-out: AUC0-9): 38100 ng·h/mL
- AUC(0-t) (oral, 60 mg, Steady state (Cycle 1 Day 10), 60 mg BID, N 5, read-out: AUC0-12): 47100 ng·h/mL
- Tmax (oral, 60 mg, Steady state (Cycle 1 Day 10), 60 mg BID, N 5, median (range), read-out: Tmax): 1.13 h
- AUC(0-inf) (oral, Single dose, 20 mg BID cohort, N 4): 10200 ng·h/mL
- AUC(0-inf) (oral, Single dose, 40 mg BID cohort, N 4): 19300 ng·h/mL
- AUC(0-inf) (oral, Single dose, 60 mg BID cohort, N 7): 27500 ng·h/mL
- Tmax (po, 60 mg, oral administration, RP2D of 60 mg BID, read-out: median Tmax): ~1 h
- Plasma exposure after a single dose compared with FIH study (single-dose administration): similar
- Steady-state exposure compared with FIH study (steady state): slightly higher
